The compounds below were run on P. aeruginosa, PAM1723, overexpressing the MexAB-OprM efflux pump. Conditions: lowest EPI concentration giving antibacterial activity with levofloxacin at 1/8 of its MIC, MHB, 20 h at 35° C.
Type: cell-based, Pseudomonas aeruginosa
Protocol: All EPI compounds were readily soluble in water and stock solutions were prepared at a final concentration of 10 mg/ml. Stock solutions were further diluted, according to the needs of the particular assay, in Mueller Hinton Broth (MHB). Stock solution was stored at […].
The checkerboard assay was performed in microtiter plates. […] EPIs were diluted in the y-axis, each row containing a single concentration of an EPI. […] The assay was performed in MHB with a final bacterial inoculum of 5 times 10^5 CFU/ml (from an early-log phase culture). Microtiter plates were incubated during 20 h at 35° C. and were read using a microtiter plate reader (Molecular Devices) at 650 nm as well as visual observation using a microtiter plate-reading mirror.

Row | SMILES | MPC8 (Minimum Potentiating Concentration)
1 | NCCN(CCN)C(=O)CC[C@H](N)C(=O)N[C@H](CCc1ccc(C(F)(F)F)cc1)C(=O)NCC1OB(O)c2ccccc21 (stereo in doubt) [Compound 36, (S)-2-amino-N5,N5-bis(2-aminoethyl)-N1-((R)-1-(((R)-1-hydroxy-1,3-dihydrobenzo[c][1,2]oxaborol-3-yl)methylamino)-1-oxo-4-(4-(trifluoromethyl)phenyl)butan-2-yl)pentanediamide] | B (B = MPC8 of 2.5 μg/ml to less than 10 μg/mL.)
2 | NCCN(CCN)C(=O)CC[C@H](N)C(=O)N[C@H](Cc1ccc(C(F)(F)F)cc1)C(=O)Nc1ccc2c(c1)B(O)OC2 [Compound 1, (S)-2-amino-N5,N5-bis(2-aminoethyl)-N1-((R)-1-(1-hydroxy-1,3-dihydrobenzo[c][1,2]oxaborol-6-ylamino)-1-oxo-3-(4-(trifluoromethyl)phenyl)propan-2-yl)pentanediamide] | C (C = MPC8 of 10 μg/mL or greater.)
3 | NCCN(CCN)C(=O)CC[C@H](N)C(=O)N[C@H](Cc1ccc(C(F)(F)F)cc1)C(=O)NCc1ccc(B(O)O)cc1 [Compound 3, 4-(((R)-2-((S)-2-amino-5-(bis(2-aminoethyl)amino)-5-oxopentanamido)-3-(4-(trifluoromethyl)phenyl)propanamido)methyl)phenylboronic acid] | C (C = MPC8 of 10 μg/mL or greater.)
4 | NCCN(CCN)C(=O)C[C@H](N)C(=O)N[C@H](C(=O)Nc1ccc2c(c1)B(O)OC2)[C@H](O)c1ccc(C(F)(F)F)cc1 [Compound 4, (S)-2-amino-N4,N4-bis(2-aminoethyl)-N1-((1R,2S)-1-hydroxy-3-(1-hydroxy-1,3-dihydrobenzo[c][1,2]oxaborol-6-ylamino)-3-oxo-1-(4-(trifluoromethyl)phenyl)propan-2-yl)succinamide] | C (C = MPC8 of 10 μg/mL or greater.)
5 | NCCN(CCN)C(=O)C[C@H](N)C(=O)N[C@H](Cc1ccc(C(F)(F)F)cc1)C(=O)Nc1ccc2c(c1)B(O)OC2 [Compound 5, (S)-2-amino-N4,N4-bis(2-aminoethyl)-N1-((R)-1-(1-hydroxy-1,3-dihydrobenzo[c][1,2]oxaborol-6-ylamino)-1-oxo-3-(4-(trifluoromethyl)phenyl)propan-2-yl)succinamide] | C (C = MPC8 of 10 μg/mL or greater.)
6 | NCCN(CCN)C(=O)C[C@H](N)C(=O)N[C@H](CCc1ccc(C(F)(F)F)cc1)C(=O)Nc1ccc2c(c1)B(O)OC2 [Compound 7, (S)-2-amino-N4,N4-bis(2-aminoethyl)-N1-((R)-1-(1-hydroxy-1,3-dihydrobenzo[c][1,2]oxaborol-6-ylamino)-1-oxo-4-(4-(trifluoromethyl)phenyl)butan-2-yl)succinamide] | B (B = MPC8 of 2.5 μg/ml to less than 10 μg/mL.)
7 | NCCN(CCN)C(=O)CC[C@H](N)C(=O)N[C@H](Cc1ccc(C(F)(F)F)cc1)C(=O)Nc1ccccc1B(O)O [Compound 8, 2-((R)-2-((S)-2-amino-5-(bis(2-aminoethyl)amino)-5-oxopentanamido)-3-(4-(trifluoromethyl)phenyl)propanamido)phenylboronic acid] | C (C = MPC8 of 10 μg/mL or greater.)
8 | NCCN(CCN)C(=O)CC[C@H](N)C(=O)N[C@@H](Cc1ccc(C(F)(F)F)cc1)C(=O)Nc1ccccc1B(O)O [Compound 9, 2-((S)-2-((S)-2-amino-5-(bis(2-aminoethyl)amino)-5-oxopentanamido)-3-(4-(trifluoromethyl)phenyl)propanamido)phenylboronic acid] | C (C = MPC8 of 10 μg/mL or greater.)
9 | NCCN(CCN)C(=O)C[C@H](N)C(=O)N[C@H](Cc1ccc(C(F)(F)F)cc1)C(=O)Nc1cc(B(O)O)cc(C(F)(F)F)c1 [Compound 10, 3-((R)-2-((S)-2-amino-4-(bis(2-aminoethyl)amino)-4-oxobutanamido)-3-(4-(trifluoromethyl)phenyl)propanamido)-5-(trifluoromethyl)phenylboronic acid] | B (B = MPC8 of 2.5 μg/ml to less than 10 μg/mL.)
